Data from patent US20240108641A1, “COMPOSITIONS FOR ORAL ADMINISTRATION OF ZOLEDRONIC ACID OR RELATED COMPOUNDS FOR TREATING DISEASE” (ANTECIP BIOVENTURES II LLC, priority 2012, published 2024).

How the values were obtained:
[1] = in vivo; conditions: dog, po, 150 mg
Method: Tablets were manufactured containing either pure zoledronic acid or the disodium salt of zoledronic acid (disodium zoledronate tetrahydrate). Both types of tablets contained 50 mg of zoledronic acid equivalent per tablet. Identical excipients were used in both types of tablets, with amounts adjusted to account for the difference in molecular weights between the acid and the disodium salt.
Beagle dogs were orally administered tablets containing 150 mg zoledronic acid equivalent either in the form of disodium zoledronate (Group 1) or pure zoledronic acid (Group 2). Each animal was given three 50 mg equivalent tablets (150 mg total), which were administered together. The animal's oral cavity was wetted with water before placing the tablets on the back of the animal's tongue. Animals were fasted before and after dosing. Animals were 6 to 9 months of age and weighed 6 to 10 kg on the day of dosing. There were three dogs per group.
Serial blood samples were collected from each animal by venipuncture of the jugular vein at various points after dosing for measurement of plasma concentrations of zoledronic acid. Blood samples were collected into chilled tubes containing K2EDTA as the anticoagulant. Samples were then centrifuged at approximately 3000 rpm at +4° C. for 10 minutes for plasma derivation. Plasma concentrations of zoledronic acid were measured using an LC/MS/MS method.

[2] = format: physicochemical; conditions: pH 5.5
Method: One gram of the test compound was measured into a beaker. […] The procedure was continued until complete dissolution was achieved. […] The procedure was performed for each compound.

O.O.O.O.O=P([O-])(O)C(O)(Cn1ccnc1)P(=O)([O-])O.[Na+].[Na+] [disodium zoledronate tetrahydrate]
average AUC0-∞ [1]: 4073 ng·h/mL | aqueous solubility relative to zoledronic acid [2]: approximately 50 times
